Results from patent publication US8048862B2, “Macrocyclic inhibitors of hepatitis C virus replication” (priority 2008, dated 2011).
Like-named read-outs stand apart in the source and are kept apart here.

Tests used:
NS3/NS4 complexes = NS3/NS4 complexes (Hepatitis C virus genotype 1a, UniProt P27958); assay: NS3/NS4 inhibition activity (IC50); format: biochemical
Outline: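 NS3/NS4 complexes were formed and compound inhibitory concentrations determined at ambient temperature (23 °C). The buffer contained 50 mM Tris-HCl pH 7.5, 15% glycerol, 0.6 mM LDAO, 25 μM NS4A peptide and 10 mM DTT.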

hepatitis C replicon = hepatitis C replicon EC50; format: cell-based; settings: Hepatitis C virus
Text: NS3-NS4 inhibition activity can be determined using known assay methods.

[1] = Table 3, hepatitis C replicon, read-out: EC50
[2] = Table 2, hepatitis C replicon, read-out: EC50

Sequence of NS3/NS4 complexes (P27958 1027-1657): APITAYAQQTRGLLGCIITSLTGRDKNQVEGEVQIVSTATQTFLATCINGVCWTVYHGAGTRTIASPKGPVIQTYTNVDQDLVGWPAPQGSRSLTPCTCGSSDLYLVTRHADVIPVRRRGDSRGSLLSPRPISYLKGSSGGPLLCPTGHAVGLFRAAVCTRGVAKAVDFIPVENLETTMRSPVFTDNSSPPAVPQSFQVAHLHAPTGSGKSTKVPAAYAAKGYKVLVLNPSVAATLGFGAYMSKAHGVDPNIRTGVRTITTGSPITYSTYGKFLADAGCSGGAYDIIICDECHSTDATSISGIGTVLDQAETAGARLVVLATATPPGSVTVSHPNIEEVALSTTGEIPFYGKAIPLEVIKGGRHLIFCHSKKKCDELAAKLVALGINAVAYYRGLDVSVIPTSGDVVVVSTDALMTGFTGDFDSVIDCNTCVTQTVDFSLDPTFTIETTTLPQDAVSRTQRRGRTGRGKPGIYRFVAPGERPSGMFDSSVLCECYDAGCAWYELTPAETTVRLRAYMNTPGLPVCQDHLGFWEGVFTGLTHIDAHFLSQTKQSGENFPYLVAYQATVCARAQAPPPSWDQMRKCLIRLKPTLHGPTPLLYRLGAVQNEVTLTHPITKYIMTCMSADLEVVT
Sequence of NS3/NS4 complexes (P27958 1658-1711): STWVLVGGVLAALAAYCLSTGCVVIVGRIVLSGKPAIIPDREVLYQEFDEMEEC

Row | Structure (SMILES) | EC50 (hepatitis C replicon; [1]) [nM] | IC50 (NS3/NS4 complexes; Table 2, read-out: IC50) [nM] | EC50 (hepatitis C replicon; [2]) [nM] | also measured
1 | COc1ccc2nc(O[C@@H]3C[C@H]4C(=O)N[C@]5(C(=O)NS(=O)(=O)C6(C)CC6)C[C@H]5/C=C\CCCCC[C@H](NC(=O)OC(C)(C)C)C(=O)N4C3)sc2c1 [Compound 1016] | 10 to 100 |  |  | IC50 (NS3/NS4 complexes; Table 3, read-out: IC50): < 10 nM
2 | COc1ccc2c(O[C@@H]3C[C@H]4C(=O)N[C@]5(C(=O)NS(=O)(=O)C6(C)CC6)C[C@H]5/C=C\CCCCC[C@H](Nc5cccc(C(=O)N(C)C)c5)C(=O)N4C3)cc(-c3nc(C(C)C)cs3)nc2c1C [Compound 479] |  | < 10 | < 10 | 
3 | O=C1N[C@]2(C(=O)O)C[C@H]2/C=C\CCCCC[C@H](Nc2ccccc2)C(=O)N2C[C@H](Oc3nc4ccccc4s3)C[C@@H]12 [Compound 101] |  | 75 to 500 | > 500 | 
4 | O=C1N[C@]2(C(=O)NOc3ccccc3)C[C@H]2/C=C\CCCCC[C@H](NCc2ccccc2)C(=O)N2C[C@H](Oc3nc4ccccc4s3)C[C@@H]12 [Compound 309] |  | 75 to 500 | > 500 | 
5 | COc1ccc2c(O[C@@H]3C[C@H]4C(=O)N[C@]5(C(=O)NS(=O)(=O)C6(C)CC6)C[C@H]5/C=C\CCCCC[C@H](Nc5ccc(C#N)cc5)C(=O)N4C3)cc(-c3nc(C(C)C)cs3)nc2c1C [Compound 481] |  | < 10 | < 10 | 
6 | CC1(S(=O)(=O)NC(=O)[C@@]23C[C@H]2/C=C\CCCCC[C@H](Nc2cccc(Cl)c2)C(=O)N2C[C@H](Oc4nc5ccccc5s4)C[C@H]2C(=O)N3)CC1 [Compound 337] |  | < 10 | 75 to 500 | 
7 | O=C1N[C@]2(C(=O)NS(=O)(=O)C3CC3)C[C@H]2/C=C\CCCCC[C@H](Nc2ccc(F)c(C(F)(F)F)c2)C(=O)N2C[C@H](Oc3nccc4ccccc34)C[C@@H]12 [Compound 375] |  | < 10 | < 10 | 
8 | COc1ccc2c(O[C@@H]3C[C@H]4C(=O)N[C@]5(C(=O)NS(=O)(=O)N(C)C)C[C@H]5/C=C\CCCCC[C@H](Nc5cccc(C(F)(F)F)c5)C(=O)N4C3)cc(-c3nc(C(C)C)cs3)nc2c1C [Compound 457] |  | < 10 | < 10 | 
9 | CC1(S(=O)(=O)NC(=O)[C@@]23C[C@H]2/C=C\CCCCC[C@H](Nc2ccccc2)C(=O)N2C[C@H](OC(=O)N4Cc5cccc(F)c5C4)C[C@H]2C(=O)N3)CC1 [Compound 1102] | < 10 |  |  | IC50 (NS3/NS4 complexes; Table 3, read-out: IC50): < 10 nM
10 | CNC(=O)COc1ccccc1S(=O)(=O)NC(=O)[C@@]12C[C@H]1/C=C\CCCCC[C@H](NC(=O)OC(C)(C)C)C(=O)N1C[C@H](OC(=O)N3Cc4cccc(F)c4C3)C[C@H]1C(=O)N2 [Compound 1084] | > 100 |  |  | IC50 (NS3/NS4 complexes; Table 3, read-out: IC50): < 10 nM
11 | CC1(S(=O)(=O)NC(=O)[C@@]23C[C@H]2/C=C\CCCCC[C@H](Nc2ccccc2)C(=O)N2C[C@H](Oc4nc5ccc(Cl)cc5s4)C[C@H]2C(=O)N3)CC1 [Compound 217] |  | < 10 | 75 to 500 | 
12 | CNC(=O)COc1ccccc1S(=O)(=O)NC(=O)[C@@]12C[C@H]1/C=C\CCCCC[C@H](NC(=O)OC(C)(C)C)C(=O)N1C[C@H](O)C[C@H]1C(=O)N2 [Compound 1094] | > 100 |  |  | IC50 (NS3/NS4 complexes; Table 3, read-out: IC50): > 100 nM
13 | COc1ccc2c(O[C@@H]3C[C@H]4C(=O)N[C@]5(C(=O)NS(=O)(=O)C6(C)CC6)C[C@H]5/C=C\CCCCC[C@H](Nc5cccc(F)c5)C(=O)N4C3)cc(-c3nc(C(C)C)cs3)nc2c1C [Compound 361] |  | < 10 | < 10 | 
14 | CC1(S(=O)(=O)NC(=O)[C@@]23C[C@H]2/C=C\CCCCC[C@H](Nc2cccc(OC(F)(F)F)c2)C(=O)N2C[C@H](Oc4nccc5ccccc45)C[C@H]2C(=O)N3)CC1 [Compound 444] |  | < 10 | 10 to 75 | 
15 | CC1(S(=O)(=O)NC(=O)[C@@]23C[C@H]2/C=C\CCCCC[C@H](Nc2cccc(C(F)(F)F)c2)C(=O)N2C[C@H](Oc4nccc5ccccc45)C[C@H]2C(=O)N3)CC1 [Compound 230] |  | < 10 | < 10 | 
16 | CC(C)(C)OC(=O)N[C@H]1CCCCC/C=C\[C@@H]2C[C@@]2(C(=O)NCC(=O)NCc2ccccc2)NC(=O)[C@@H]2C[C@@H](OC(=O)N3Cc4cccc(F)c4C3)CN2C1=O [Compound 1053] |  |  |  | IC50 (NS3/NS4 complexes; IC50, Table 3): 10 to 100 nM; EC50 (hepatitis C replicon): > 100 nM
17 | COc1ccc2c(O[C@@H]3C[C@H]4C(=O)N[C@]5(C(=O)NS(=O)(=O)C6(C)CC6)C[C@H]5/C=C\CCCCC[C@H](Nc5nc6ccccc6o5)C(=O)N4C3)cc(-c3nc(C(C)C)cs3)nc2c1C [Compound 379] |  | < 10 | < 10 | 
18 | CC(=O)O[C@@H]1C[C@H]2C(=O)N[C@]3(C(=O)N4CCC[C@H]4C(=O)NCc4ccccc4)C[C@H]3/C=C\CCCCC[C@H](NC(=O)OC(C)(C)C)C(=O)N2C1 [Compound 1061] | > 100 |  |  | IC50 (NS3/NS4 complexes; IC50, Table 3): > 100 nM
19 | CC1(S(=O)(=O)NC(=O)[C@@]23C[C@H]2/C=C\CCCCC[C@H](Nc2ccc(C(F)(F)F)cc2)C(=O)N2C[C@H](OC(=O)N4Cc5cccc(F)c5C4)C[C@H]2C(=O)N3)CC1 [Compound 1118] | > 100 |  |  | IC50 (NS3/NS4 complexes; Table 3, read-out: IC50): < 10 nM
20 | CO[C@@H]1C[C@H]2C(=O)N[C@]3(C(=O)NS(=O)(=O)C4(C)CC4)C[C@H]3/C=C\CCCCC[C@H](NC(=O)OC(C)(C)C)C(=O)N2C1 [Compound 1091] | > 100 |  |  | IC50 (NS3/NS4 complexes; Table 3, read-out: IC50): > 100 nM

Row | Structure (SMILES) | EC50 (hepatitis C replicon; [1]) [nM] | IC50 (NS3/NS4 complexes; Table 2, read-out: IC50) [nM] | EC50 (hepatitis C replicon; [2]) [nM] | also measured
21 | CCn1c(O[C@@H]2C[C@H]3C(=O)N[C@]4(C(=O)NS(=O)(=O)C5CC5)C[C@H]4/C=C\CCCCC[C@H](NC(=O)OC(C)(C)C)C(=O)N3C2)nc2ccccc21 [Compound 1007] | < 10 |  |  | IC50 (NS3/NS4 complexes; Table 3, read-out: IC50): < 10 nM
22 | Cc1ccc2c(c1)nc(O[C@@H]1C[C@H]3C(=O)N[C@]4(C(=O)NS(=O)(=O)C5(C)CC5)C[C@H]4/C=C\CCCCC[C@H](Nc4ccccc4)C(=O)N3C1)n2C(C)C [Compound 470] |  | < 10 | 10 to 75 | 
23 | CC1(S(=O)(=O)NC(=O)[C@@]23C[C@H]2/C=C\CCCCC[C@H](Nc2cccc(F)c2)C(=O)N2C[C@H](Oc4nccc5ccccc45)C[C@H]2C(=O)N3)CC1 [Compound 243] |  | < 10 | 10 to 75 | 
24 | CC(C)n1c(O[C@@H]2C[C@H]3C(=O)N[C@]4(C(=O)O)C[C@H]4/C=C\CCCCC[C@H](Nc4cc(F)cc(C(F)(F)F)c4)C(=O)N3C2)nc2ccccc21 [Compound 320] |  | < 10 | < 10 | 
25 | O=C1N[C@]2(C(=O)O)C[C@H]2/C=C\CCCCC[C@H](Nc2cc(C(F)(F)F)cc(C(F)(F)F)c2)C(=O)N2C[C@H](Oc3nc4ccccc4s3)C[C@@H]12 [Compound 338] |  | 75 to 500 | > 500 | 
26 | CC1(S(=O)(=O)NC(=O)[C@@]23C[C@H]2/C=C\CCCCC[C@H](Nc2cc(F)cc(C(F)(F)F)c2)C(=O)N2C[C@H](Oc4nc5ccc(Br)cc5s4)C[C@H]2C(=O)N3)CC1 [Compound 352] |  | < 10 | 10 to 75 | 
27 | CC1(S(=O)(=O)NC(=O)[C@@]23C[C@H]2/C=C\CCCCC[C@H](Nc2ccccc2)C(=O)N2C[C@H](Oc4nc5ccccc5s4)C[C@H]2C(=O)N3)CC1 [Compound 213] |  | < 10 | 10 to 75 | 
28 | COc1ccc2c(O[C@@H]3C[C@H]4C(=O)N[C@]5(C(=O)NS(=O)(=O)C6(C)CC6)C[C@H]5/C=C\CCCCC[C@H](Nc5cc(F)cc(F)c5)C(=O)N4C3)cc(-c3nc(C(C)C)cs3)nc2c1C [Compound 363] |  | < 10 | 10 to 75 | 
29 | CC(C)(C)c1csc(N[C@H]2CCCCC/C=C\[C@@H]3C[C@@]3(C(=O)NS(=O)(=O)C3(C)CC3)NC(=O)[C@@H]3C[C@@H](Oc4nc5ccccc5s4)CN3C2=O)n1 [Compound 231] |  | < 10 | 10 to 75 | 
30 | Cc1cccc2c1nc(O[C@@H]1C[C@H]3C(=O)N[C@]4(C(=O)NS(=O)(=O)C5(C)CC5)C[C@H]4/C=C\CCCCC[C@H](Nc4ccccc4)C(=O)N3C1)n2C(C)C [Compound 471] |  | < 10 | 10 to 75 | 
31 | CC1(S(=O)(=O)NC(=O)[C@@]23C[C@H]2/C=C\CCCCC[C@H](Nc2ccccc2F)C(=O)N2C[C@H](Oc4nc5ccccc5s4)C[C@H]2C(=O)N3)CC1 [Compound 339] |  | < 10 | 75 to 500 | 
32 | CC(C)n1c(O[C@@H]2C[C@H]3C(=O)N[C@]4(C(=O)NS(=O)(=O)N(C)C)C[C@H]4/C=C\CCCCC[C@H](NC(=O)OC(C)(C)C)C(=O)N3C2)nc2cc(F)ccc21 [Compound 1133] | < 10 |  |  | IC50 (NS3/NS4 complexes; Table 3, read-out: IC50): < 10 nM
33 | COc1ccc2c(O[C@@H]3C[C@H]4C(=O)N[C@]5(C(=O)NS(=O)(=O)C6(C)CC6)C[C@H]5/C=C\CCCCC[C@H](Nc5cc(C)cc(F)c5)C(=O)N4C3)cc(-c3nc(C(C)C)cs3)nc2c1C [Compound 482] |  | < 10 | < 10 | 
34 | Cc1cccc2nc(O[C@@H]3C[C@H]4C(=O)N[C@]5(C(=O)NS(=O)(=O)N(C)C)C[C@H]5/C=C\CCCCC[C@H](NC(=O)OC(C)(C)C)C(=O)N4C3)n(C(C)C)c12 [Compound 1138] | < 10 |  |  | IC50 (NS3/NS4 complexes; Table 3, read-out: IC50): < 10 nM
35 | COc1ccc2c(O[C@@H]3C[C@H]4C(=O)N[C@]5(C(=O)NS(=O)(=O)N(C)C)C[C@H]5/C=C\CCCCC[C@H](Nc5ccccc5)C(=O)N4C3)cc(-c3nc(C(C)C)cs3)nc2c1C [Compound 412] |  | < 10 | < 10 | 
36 | CC(C)(C)OC(=O)N[C@H]1CCCCC/C=C\[C@@H]2C[C@@]2(C(=O)NS(=O)(=O)C2CC2)NC(=O)[C@@H]2C[C@@H](Oc3nc4cc(F)ccc4o3)CN2C1=O [Compound 1034] | 10 to 100 |  |  | IC50 (NS3/NS4 complexes; Table 3, read-out: IC50): < 10 nM
37 | CC(C)(C)OC(=O)N[C@H]1CCCCC/C=C\[C@@H]2C[C@@]2(C(=O)NS(=O)(=O)CC(=O)Nc2ccccc2)NC(=O)[C@@H]2C[C@@H](OC(=O)N3Cc4cccc(F)c4C3)CN2C1=O [Compound 1082] |  |  |  | IC50 (NS3/NS4 complexes; Table 3, read-out: IC50): < 10 nM; EC50 (hepatitis C replicon): > 100 nM
38 | CN(C)S(=O)(=O)NC(=O)[C@@]12C[C@H]1/C=C\CCCCC[C@H](NC(=O)OC(C)(C)C)C(=O)N1C[C@H](Oc3nc4ccccc4n3COCC[Si](C)(C)C)C[C@H]1C(=O)N2 [Compound 1143] | > 100 |  |  | IC50 (NS3/NS4 complexes; IC50, Table 3): < 10 nM
39 | COc1ccc2c(O[C@@H]3C[C@H]4C(=O)N[C@]5(C(=O)NS(=O)(=O)C6(C)CC6)C[C@H]5/C=C\CCCCC[C@H](Nc5cccc(C(F)(F)F)c5)C(=O)N4C3)cc(-c3nc(C(C)C)cs3)nc2c1C [Compound 360] |  | < 10 | < 10 | 
